Measured values from article PMC13058478 (Frontiers in Pharmacology, 2026).

Test: Caco-2 passive permeability A to B
Format: in vitro ADME
Details: Caco-2, A to B
Procedure: The concentration of each compound in the respective samples was determined by LC-MS.

Apparent passive permeability A to B Paap, Min: 18.41 10^-6 cm/s
SMILES: CC(C)NCC(O)COc1cccc2ccccc12 (stereo not shown) [Propranolol]
